{"source": "patent US7977388B2", "about": "“Quinone derivative 2,3-dimethoxy-5-methyl-6-(10-hydroxydecyl)-1,4-benzoquinone for the treatment of muscular dystrophies” (Santhera Pharmaceuticals (Schweiz) AG, priority 2005, dated 2011)", "tested_on": "dystrophin-deficient mdx mouse", "test": "Voluntary daily running performance of idebenone-treated mdx mice", "format": "in vivo", "procedure": "The effect of idebenone on the running performance was tested in the dystrophin-deficient mdx mouse, a validated animal model for DMD. Starting at day 21 of age, mdx mice were treated with idebenone. Their daily running performance was compared to mdx mice treated with vehicle only and to non-treated wild-type mice. For this, idebenone was dissolved in 0.5% w/v carboxymethylcellulose (CMC) to a final concentration of 20 mg/ml. Idebenone (20 mg/ml in 0.5% CMC) was applied once a day by gavage feeding. The final dose of idebenone at all time points was 200 mg/kg body weight. Control mice received the same amount of vehicle only. […] Idebenone treated mdx mice performed clearly better compared to the vehicle-treated mdx mice from the start of the analysis."}
{"smiles": "COC1=C(OC)C(=O)C(CCCCCCCCCCO)=C(C)C1=O", "note": "[idebenone, 2,3-dimethoxy-5-methyl-6-(10-hydroxydecyl)-1,4-benzoquinone]", "values": [{"measurement": "Total daily running distance", "setting": "mdx mice treated daily with idebenone vs vehicle-treated mdx and wild-type mice, distance in meters", "result": "clearly increased"}, {"measurement": "Daily running performance", "setting": "mdx mice, 200 mg/kg body weight once a day by gavage in 0.5% CMC from day 21 of age, analysed 29-84 days of age, vs vehicle-treated mdx mice", "result": "prominent increase"}]}
